≈ marks a conversion by molar mass, not a printed value.
How the values were obtained:
[1] = test system: Staphylococcus aureus S13E; format: cell-based
Procedure: (§1) The MIC's were determined using a standard broth micro-dilution assay.

[2] = test system: Staphylococcus aureus SA1199B; format: cell-based
Procedure: as §1

[3] = test system: Entercoccus faecium 180-1; assay: broth micro-dilution MIC; format: cell-based
Procedure: as §1

[4] = test system: Entercoccus faecium 276; assay: broth micro-dilution MIC; format: cell-based
Procedure: as §1

[5] = test system: Staphylococcus aureus 446; assay: broth micro-dilution MIC; format: cell-based
Procedure: as §1

[6] = test system: Staphylococcus aureus 447; assay: broth micro-dilution MIC; format: cell-based
Procedure: as §1

[7] = test system: Staphylococcus aureus SA1199A; assay: broth micro-dilution MIC; format: cell-based
Procedure: as §1

[8] = test system: Staphylococcus aureus SA1199; assay: broth micro-dilution MIC; format: cell-based
Procedure: as §1

[9] = test system: Staphylococcus aureus X778; assay: broth micro-dilution MIC; format: cell-based
Procedure: as §1

[10] = test system: Entercoccus faecium 180; assay: broth micro-dilution MIC; format: cell-based; details: Entercoccus faecium 180
Procedure: (§2) The formula I compounds have in vitro and in vivo activity against Gram-positive pathogenic bacteria. The MIC's were determined using a standard broth micro-dilution assay.

[11] = test system: Entercoccus faecium 2041; assay: broth micro-dilution MIC; format: cell-based; details: Entercoccus faecium 2041
Procedure: as §2

[12] = test system: Enterococcus gallinarum 245; assay: broth micro-dilution MIC; format: cell-based; details: Enterococcus gallinarum 245
Procedure: as §2

[13] = test system: Staphylococcus epidermidis 270; assay: broth micro-dilution MIC; format: cell-based
Procedure: as §2

[14] = test system: Staphylococcus haemolyticus 415; assay: broth micro-dilution MIC; format: cell-based
Procedure: as §2

[15] = test system: Streptococcus pneumoniae P1; assay: broth micro-dilution MIC; format: cell-based
Procedure: as §2

[16] = test system: vancomycin-resistant enterococci; assay: broth micro-dilution, mean geometric MIC; format: cell-based, Enterococcus faecium and Enterococcus faecalis; details: enterococci, 24-hour incubation
[17] = test system: vancomycin-susceptible enterococci; assay: broth micro-dilution, mean geometric MIC; format: cell-based, Enterococcus faecium and Enterococcus faecalis; details: enterococci, 24-hour incubation
[18] = test system: Staphylococcus aureus 489; assay: broth micro-dilution MIC; format: cell-based
Procedure: as §1

[19] = test system: Staphylococcus aureus X400; assay: broth micro-dilution MIC; format: cell-based
Procedure: as §1

[20] = test system: Staphylococcus haemolyticus 105; assay: broth micro-dilution MIC; format: cell-based
Procedure: as §2

[21] = test system: Streptococcus pyogenes C203; assay: broth micro-dilution MIC; format: cell-based
Procedure: as §1

Structure (SMILES)	MIC [1]	MIC [2]	MIC [3]	MIC [4]	MIC [5]	MIC [6]	MIC [7]	MIC [8]	MIC [9]	MIC [10]	MIC [11]	MIC [12]	MIC [13]	MIC [14]	MIC [15]	mean geometric MIC, Vancomycin Resistant Strains [16]	mean geometric MIC, Vancomycin Sensitive Strains [17]	MIC [19]	MIC [20]	MIC [21]	also measured
CNC(CC(C)C)C(=O)NC1C(=O)NC(CC(N)=O)C(=O)NC2C(=O)NC3C(=O)NC(C(=O)NC(C(=O)O)c4cc(O)cc(O)c4-c4cc3ccc4O)C(OC3CC(C)(N)C(O)C(C)O3)c3ccc(c(Cl)c3)Oc3cc2cc(c3OC2OC(CO)C(O)C(O)C2OC2CC(C)(NCc3ccc4cc(OC)ccc4c3)C(O)C(C)O2)Oc2ccc(cc2Cl)C1O (stereo not shown) [Compound 65]	0.5 µg/mL (≈ 0.284 µM)	2 µg/mL (≈ 1.13 µM)	≤ 0.06 µg/mL	0.5 µg/mL (≈ 0.284 µM)	2 µg/mL (≈ 1.13 µM)	1 µg/mL (≈ 0.567 µM)	≤ 0.06 µg/mL	0.5 µg/mL (≈ 0.284 µM)	0.5 µg/mL (≈ 0.284 µM)	0.5 µg/mL (≈ 0.284 µM)	≤ 0.06 µg/mL	4 µg/mL (≈ 2.27 µM)	1 µg/mL (≈ 0.567 µM)	4 µg/mL (≈ 2.27 µM)	≤ 0.06 µg/mL	2.4 µg/mL	0.20 µg/mL				
CNC(CC(C)C)C(=O)NC1C(=O)NC(CC(N)=O)C(=O)NC2C(=O)NC3C(=O)NC(C(=O)NC(C(=O)O)c4cc(O)cc(O)c4-c4cc3ccc4O)C(OC3CC(C)(N)C(O)C(C)O3)c3ccc(c(Cl)c3)Oc3cc2cc(c3OC2OC(CO)C(O)C(O)C2OC2CC(C)(NCc3cc(C)cs3)C(O)C(C)O2)Oc2ccc(cc2Cl)C1O (stereo not shown) [Compound 66]	≤ 0.06 µg/mL		≤ 0.06 µg/mL	≤ 0.06 µg/mL		1 µg/mL (≈ 0.587 µM)	≤ 0.06 µg/mL		≤ 0.06 µg/mL	2 µg/mL (≈ 1.17 µM)	≤ 0.06 µg/mL	8 µg/mL (≈ 4.7 µM)	1 µg/mL (≈ 0.587 µM)	8 µg/mL (≈ 4.7 µM)	≤ 0.06 µg/mL	16 µg/mL	0.76 µg/mL				MIC [18]: 1 µg/mL (≈ 0.587 µM)
CNC(CC(C)C)C(=O)NC1C(=O)NC(CC(N)=O)C(=O)NC2C(=O)NC3C(=O)NC(C(=O)NC(C(=O)O)c4cc(O)cc(O)c4-c4cc3ccc4O)C(OC3CC(C)(N)C(O)C(C)O3)c3ccc(c(Cl)c3)Oc3cc2cc(c3OC2OC(CO)C(O)C(O)C2OC2CC(C)(NCCc3ccc(OCc4ccccc4)cc3)C(O)C(C)O2)Oc2ccc(cc2Cl)C1O (stereo not shown) [Compound 68]	≤ 0.06 µg/mL	0.5 µg/mL (≈ 0.277 µM)	≤ 0.06 µg/mL	≤ 0.06 µg/mL			≤ 0.06 µg/mL	≤ 0.06 µg/mL	≤ 0.06 µg/mL	2 µg/mL (≈ 1.11 µM)	≤ 0.06 µg/mL	4 µg/mL (≈ 2.22 µM)	2 µg/mL (≈ 1.11 µM)	4 µg/mL (≈ 2.22 µM)		6.7 µg/mL		≤ 0.06 µg/mL	2 µg/mL (≈ 1.11 µM)		
CNC(CC(C)C)C(=O)NC1C(=O)NC(CC(N)=O)C(=O)NC2C(=O)NC3C(=O)NC(C(=O)NC(C(=O)O)c4cc(O)cc(O)c4-c4cc3ccc4O)C(OC3CC(C)(N)C(O)C(C)O3)c3ccc(c(Cl)c3)Oc3cc2cc(c3OC2OC(CO)C(O)C(O)C2OC2CC(C)(NCc3cc(-c4ccccc4)ccc3O)C(O)C(C)O2)Oc2ccc(cc2Cl)C1O (stereo not shown) [Compound 85]	0.5 µg/mL (≈ 0.282 µM)	1 µg/mL (≈ 0.563 µM)	≤ 0.06 µg/mL				≤ 0.06 µg/mL	0.5 µg/mL (≈ 0.282 µM)		≤ 0.06 µg/mL	≤ 0.06 µg/mL	2 µg/mL (≈ 1.13 µM)	0.5 µg/mL (≈ 0.282 µM)	2 µg/mL (≈ 1.13 µM)	≤ 0.06 µg/mL	3.4 µg/mL	0.11 µg/mL		1 µg/mL (≈ 0.563 µM)	≤ 0.06 µg/mL	
CNC(CC(C)C)C(=O)NC1C(=O)NC(CC(N)=O)C(=O)NC2C(=O)NC3C(=O)NC(C(=O)NC(C(=O)O)c4cc(O)cc(O)c4-c4cc3ccc4O)C(OC3CC(C)(N)C(O)C(C)O3)c3ccc(c(Cl)c3)Oc3cc2cc(c3OC2OC(CO)C(O)C(O)C2OC2CC(C)(NCc3ccc(N4CCCCC4C)cc3)C(O)C(C)O2)Oc2ccc(cc2Cl)C1O (stereo not shown) [Compound 135]	1 µg/mL (≈ 0.562 µM)		≤ 0.06 µg/mL	0.5 µg/mL (≈ 0.281 µM)	1 µg/mL (≈ 0.562 µM)	1 µg/mL (≈ 0.562 µM)	≤ 0.06 µg/mL	1 µg/mL (≈ 0.562 µM)	1 µg/mL (≈ 0.562 µM)	1 µg/mL (≈ 0.562 µM)		2 µg/mL (≈ 1.12 µM)	0.5 µg/mL (≈ 0.281 µM)	2 µg/mL (≈ 1.12 µM)	≤ 0.06 µg/mL	4.8 µg/mL	0.22 µg/mL	≤ 0.06 µg/mL	0.5 µg/mL (≈ 0.281 µM)	≤ 0.06 µg/mL	
CNC(CC(C)C)C(=O)NC1C(=O)NC(CC(N)=O)C(=O)NC2C(=O)NC3C(=O)NC(C(=O)NC(C(=O)O)c4cc(O)cc(O)c4-c4cc3ccc4O)C(OC3CC(C)(N)C(O)C(C)O3)c3ccc(c(Cl)c3)Oc3cc2cc(c3OC2OC(CO)C(O)C(O)C2OC2CC(C)(NCc3ccc(S(=O)(=O)c4ccc(Cl)cc4)cc3)C(O)C(C)O2)Oc2ccc(cc2Cl)C1O (stereo not shown) [Compound 148]	1 µg/mL (≈ 0.538 µM)	0.5 µg/mL (≈ 0.269 µM)	≤ 0.06 µg/mL	≤ 0.06 µg/mL	1 µg/mL (≈ 0.538 µM)	1 µg/mL (≈ 0.538 µM)	≤ 0.06 µg/mL	2 µg/mL (≈ 1.08 µM)	2 µg/mL (≈ 1.08 µM)		≤ 0.06 µg/mL	2 µg/mL (≈ 1.08 µM)	0.5 µg/mL (≈ 0.269 µM)	2 µg/mL (≈ 1.08 µM)	≤ 0.06 µg/mL	0.15 µg/mL	0.052 µg/mL	≤ 0.06 µg/mL	1 µg/mL (≈ 0.538 µM)	≤ 0.06 µg/mL	
CNC(CC(C)C)C(=O)NC1C(=O)NC(CC(N)=O)C(=O)NC2C(=O)NC3C(=O)NC(C(=O)NC(C(=O)O)c4cc(O)cc(O)c4-c4cc3ccc4O)C(OC3CC(C)(N)C(O)C(C)O3)c3ccc(c(Cl)c3)Oc3cc2cc(c3OC2OC(CO)C(O)C(O)C2OC2CC(C)(NCc3cccc(OC(=O)c4ccccc4)c3)C(O)C(C)O2)Oc2ccc(cc2Cl)C1O (stereo not shown) [Compound 162]	≤ 0.06 µg/mL	≤ 0.06 µg/mL	≤ 0.06 µg/mL	≤ 0.06 µg/mL	0.5 µg/mL (≈ 0.277 µM)	≤ 0.06 µg/mL	≤ 0.06 µg/mL	≤ 0.06 µg/mL	≤ 0.06 µg/mL	≤ 0.06 µg/mL	≤ 0.06 µg/mL	2 µg/mL (≈ 1.11 µM)	≤ 0.06 µg/mL	2 µg/mL (≈ 1.11 µM)	≤ 0.06 µg/mL	4.8 µg/mL	0.12 µg/mL	≤ 0.06 µg/mL		≤ 0.06 µg/mL	

— US5840684A, “Glycopeptide antibiotic derivatives” (Eli Lilly and Company, priority 1995, dated 1998)
